Reference: EP0908457B1, “3-(1,2-benzisothiazol- and isoxazol-5-Y1)-2,4(1H,3H)-pyrimidinedione or thione and 3-(1,2-benzisothiazol- and isoxazol-5-y1)-4(3H)-pyrimidinone or thione herbicidal agents” (BASF AKTIENGESELLSCHAFT, priority 1997, dated 1999)
Values joined by “and” are separate entries in the source; they are usually repeats but may differ in a detail not shown here. Equal entries are not always repeated.

Assays:
Type in all cases: in vivo
[1] = test system: Echinochloa oryzoides (Ard.) Fritsch.; assay: Preemergence weed control under flooded paddy conditions, ECHORC (Watergrass (Calif.)); settings: for ECHORC: herbicidal effect rating 0-9, three to four weeks after treatment; as to herbicidal effect rating, ECHORC: meaning of each grade not given here
Cyperus iria = assay: Preemergence weed control under flooded paddy conditions, CYPIR (Rice Flatsedge); settings: preemergence weeds, flooded paddy; for CYPIR: herbicidal effect rating 0-9, three to four weeks after treatment; for herbicidal effect rating, CYPIR: rated three to four weeks after treatment; as to herbicidal effect rating, CYPIR: meaning of each grade not given here
[2] = test system: Cyperus serotinus, Rottb.; assay: Preemergence weed control under flooded paddy conditions, CYPSE (Flatsedge); settings: preemergence weeds; for CYPSE: herbicidal effect rating 0-9, three to four weeks after treatment; for herbicidal effect rating, CYPSE: rated three to four weeks after treatment; as to herbicidal effect rating, CYPSE: meaning of each grade not given here
[3] = test system: Monochoria vaginalis, Presl.; assay: Preemergence weed control under flooded paddy conditions, MOOVA (Monochoria); settings: for MOOVA: preemergence weeds, flooded paddy, herbicidal effect rating 0-9, three to four weeks after treatment; as to herbicidal effect rating, MOOVA: meaning of each grade not given here
Sagittaria pygmaea, L. = assay: Preemergence weed control under flooded paddy conditions, SAGPY (Arrowhead (Pygmaea)); also: meaning of each grade not given here
[4] = 0.0620 kg/ha, preemergence weeds, flooded paddy
[5] = 0.1250 kg/ha, preemergence weeds, flooded paddy
[6] = 0.2500 kg/ha, preemergence weeds, flooded paddy
[7] = Rate 0.0320 kg/ha, preemergence weeds, flooded paddy, rated three to four weeks after treatment
[8] = Rate 0.0620 kg/ha, preemergence weeds, flooded paddy, rated three to four weeks after treatment
[9] = Rate 0.1250 kg/ha, preemergence weeds, flooded paddy, rated three to four weeks after treatment
[10] = Rate 0.2500 kg/ha, preemergence weeds, flooded paddy, rated three to four weeks after treatment

## Cn1c(C(F)(F)F)cc(=O)n(-c2ccc3snc(C(SCCO)SCCO)c3c2)c1=O [Example 419, 1,2-Benzisothiazole-3-carboxaldehyde, 5-[3,6-dihydro-3-methyl-2,6-dioxo-4-(trifluoromethyl)-1(2H)-pyrimidinyl]-, 3-[bis(2-hydroxyethyl)dithioacetal]]
[1]; [4]
  ECHORC: 0.0
[1]; [5]
  ECHORC: 2.0
[1]; [6]
  ECHORC: 7.0
Cyperus iria; 0.0620 kg/ha
  CYPIR: 0.0
Cyperus iria; 0.1250 kg/ha
  CYPIR: 3.0
Cyperus iria; 0.2500 kg/ha
  CYPIR: 6.0
[2]; 0.0620 kg/ha
  CYPSE: 0.0
[2]; 0.1250 kg/ha
  CYPSE: 0.0
[2]; 0.2500 kg/ha
  CYPSE: 0.0
[3]; 0.0620 kg/ha
  MOOVA: 0.0
[3]; 0.1250 kg/ha
  MOOVA: 4.0
[3]; 0.2500 kg/ha
  MOOVA: 5.0

## Cc1ccc(OC(C)C(=O)[O-])c(-c2nsc3ccc(-n4c(=O)cc(C(F)(F)F)n(C)c4=O)cc23)c1.[Na+] (racemic) [Example 82, Sodium 2-{{2-{5-[3,6-dihydro-3-methyl-2,6-dioxo-4-(trifluoromethyl)-1(2H)-pyrimidinyl]-1,2-benzisothiazol-3-yl}-p-tolyl}oxy}propionate, DL-]
[1]; 0.0313 kg/ha, preemergence, flooded paddy, rated three to four weeks after treatment
  herbicidal effect rating, ECHORC: 9.0
[1]; 0.0625 kg/ha, preemergence, flooded paddy, rated three to four weeks after treatment
  herbicidal effect rating, ECHORC: 9.0
[1]; 0.1250 kg/ha, preemergence, flooded paddy, rated three to four weeks after treatment
  herbicidal effect rating, ECHORC: 9.0
[1]; 0.2500 kg/ha, preemergence, flooded paddy, rated three to four weeks after treatment
  herbicidal effect rating, ECHORC: 9.0

## Cc1ccc(OCC(=O)NS(=O)(=O)CCl)c(-c2nsc3ccc(-n4c(=O)cc(C(F)(F)F)n(C)c4=O)cc23)c1 [Example 343]
[1]; [7]
  herbicidal effect rating, ECHORC: 3.0
[1]; [8]
  herbicidal effect rating, ECHORC: 6.0
[1]; [9]
  herbicidal effect rating, ECHORC: 7.0
[1]; [10]
  herbicidal effect rating, ECHORC: 9.0
Cyperus iria; Rate 0.0320 kg/ha
  herbicidal effect rating, CYPIR: 0.0
Cyperus iria; Rate 0.0620 kg/ha
  herbicidal effect rating, CYPIR: 0.0
Cyperus iria; Rate 0.1250 kg/ha
  herbicidal effect rating, CYPIR: 0.0
Cyperus iria; Rate 0.2500 kg/ha
  herbicidal effect rating, CYPIR: 6.0
[2]; Rate 0.0320 kg/ha
  herbicidal effect rating, CYPSE: 0.0
[2]; Rate 0.0620 kg/ha
  herbicidal effect rating, CYPSE: 3.0
[2]; Rate 0.1250 kg/ha
  herbicidal effect rating, CYPSE: 4.0
[2]; Rate 0.2500 kg/ha
  herbicidal effect rating, CYPSE: 6.0
Sagittaria pygmaea, L.; [7]
  herbicidal effect rating, SAGPY: 0.0
Sagittaria pygmaea, L.; [8]
  herbicidal effect rating, SAGPY: 0.0
Sagittaria pygmaea, L.; [9]
  herbicidal effect rating, SAGPY: 0.0
Sagittaria pygmaea, L.; [10]
  herbicidal effect rating, SAGPY: 3.0

## CCCCS(=O)(=O)OC(C)c1nsc2ccc(-n3c(=O)cc(C(F)(F)F)n(C)c3=O)cc12 (stereo not drawn) [Example 414, 2,4(1H,3H)-Pyrimidinedione, 3-[3-(1-hydroxyethyl)-1,2-benzisothiazol-5-yl]-1-methyl-6-(trifluoromethyl)-, butanesulfonate (ester)]
[1]; 0.0320 kg/ha, preemergence weeds, flooded paddy
  ECHORC: 0.0
[1]; [4]
  ECHORC: 0.0
[1]; [5]
  ECHORC: 2.0
[1]; [6]
  ECHORC: 7.0
Cyperus iria; 0.0320 kg/ha
  CYPIR: 0.0
Cyperus iria; 0.0620 kg/ha
  CYPIR: 2.0
Cyperus iria; 0.1250 kg/ha
  CYPIR: 6.0
Cyperus iria; 0.2500 kg/ha
  CYPIR: 9.0
[2]; 0.0320 kg/ha
  CYPSE: 0.0
[2]; 0.2500 kg/ha
  CYPSE: 9.0
[3]; 0.0620 kg/ha
  MOOVA: 7.0
[3]; 0.1250 kg/ha
  MOOVA: 7.0
[3]; 0.2500 kg/ha
  MOOVA: 7.0

## COC(=O)[C@@H](C)Oc1ccc(C)cc1-c1nsc2ccc(-n3c(=O)cc(C(F)(F)F)n(C)c3=O)cc12 [Example 14, Methyl 2-{{2-{5-[3,6-dihydro-3-methyl-2,6-dioxo-4-(trifluoromethyl)-1(2H)-pyrimidinyl]-1,2-benzisothiazol-3-yl}-p-tolyl}oxy}propionate, (R)-]
[1]; in vivo
  herbicidal effect rating, ECHORC: 7.5 and 6.5 and 5.0 and 4.0
[3]; in vivo
  herbicidal effect rating, MOOVA: 9.0
Sagittaria pygmaea, L.; in vivo
  herbicidal effect rating, SAGPY: 0.0
